From PubChem BioAssay AID1361 (SRMLSC, 2008)
Calls of active or inactive are those of the source. How the calls were made is not given here.

Test: blockers of mitochondrial fusion, WT vs mutant – cell-based, chemical genetic, wild-type and mutant, confirmation (AID 1361)
Conditions: Cell-based mitochondrial fusion phenotype, imaging
[1] = mutant cells, measured here: mutant cell line IC50

IC50 (WT cells)	IC50 [1] [µM]	Structure (SMILES)
15.3 µM	> 25	COCC(C)n1c(SCc2ccc(OC)c(F)c2)nc2ccccc2c1=O (centres undefined)
> 25 µM (inactive)	> 25	CN(C)c1ccc(O)c2c1CC1CC3[C@@H](N(C)C)C(=O)C(C(N)=O)=C(O)[C@]3(O)C(=O)C1=C2O (some centres undefined)
> 25 µM (inactive)	> 25	CC(C)(C)c1ccc(OCC(=O)N2CCCCCC2)c(Br)c1
7.67 µM	> 25	COc1ccc(NC(=S)NCCC(c2ccccc2)c2ccccc2)c(OC)c1
10.6 µM	> 25	Clc1cccc(NCc2nnc(SCc3ccc(Cl)cc3Cl)o2)c1
23.8 µM	> 25	COc1ccccc1NC1=C(Cl)C(=O)N(C2CCCCC2)C1=O
15 µM	> 25	Cc1ccc(NC(=S)Nc2ccc(C(C)C)cc2)cc1S(=O)(=O)N1CCCCCC1
> 25 µM (inactive)	> 25	CC(=O)N(C)c1nnc(-c2cnccn2)s1
13.7 µM	23.2	CCOc1ccc2c(c1)C(C)=CC(C)(C)N2S(=O)(=O)c1ccc(C)cc1
> 25 µM (inactive)	> 25	CC(c1ccco1)N(C(=O)COc1ccccc1[N+](=O)[O-])c1ccccn1 (centres undefined)
> 25 µM (inactive)	> 25	Cc1ccc(C(C)C)c(OCc2ccc(C(=O)N/N=C/c3ccc(O)cc3O)cc2)c1
15.8 µM	> 25	COc1ccc(C2N(c3ccc(Cl)cc3)N=C(C(C)=O)N(C)N2C(C)=O)cc1 (centres undefined)
> 25 µM (inactive)	> 25	COc1ccccc1Nc1ncnc2nc[nH]c12
> 25 µM (inactive)	> 25	Cc1cc(C)nc(N2CCCC(C(=O)NCc3cccs3)C2)n1 (centres undefined)
20.4 µM	> 25	Cc1cc(Br)ccc1NC(=O)CN1C(=O)C2C3CC(c4ccccc4)C(C3)C2C1=O (centres undefined)
> 25 µM (inactive)	> 25	COc1ccc(NC(=O)Nc2cccc([N+](=O)[O-])c2)cc1Cl
9.38 µM	> 25	COC(=O)CNC(c1ccccc1)c1cc(C)ccc1NC(=O)c1cccc(Cl)c1 (centres undefined)
> 25 µM (inactive)	> 25	CCOC(=O)c1c(-c2ccc(OC)cc2)csc1/N=C/C1=C(O)CCCC1=O
10.6 µM	17.8	O=c1cc2c(nn1Cc1ccc(Cl)cc1Cl)-c1ccccc1CC2
> 25 µM (inactive)	> 25	O=C1Nc2ccc(Cl)cc2C12Nc1ccccc1-c1nnc(SCc3ccccc3F)nc1O2 (centres undefined)
> 25 µM (inactive)	> 25	O=C(Nc1ccccn1)c1ccco1
13.8 µM	24.2	Cc1cc(NC(=O)COC(=O)C(Nc2ccc(C(F)(F)F)cc2Cl)C(C)C)no1 (centres undefined)

Further lines, the compound ahead of its results:

Structure (SMILES)	IC50 (WT cells)	IC50 [1] [µM]
CCN(CC)c1ccc(/C=N/NC(=S)NCc2ccco2)cc1	11.6 µM	> 25
CCCCOC(=O)c1ccc(NC(=O)c2ccccc2OC)cc1	> 25 µM (inactive)	> 25
O=C(c1ccccn1)N1N=C2/C(=C/c3ccc(F)cc3)CCCC2C1c1ccc(F)cc1 (centres undefined)	16.1 µM	> 25
CN1CC(=O)Nc2ccc(F)cc2C1=O	> 25 µM (inactive)	> 25
S=c1[nH]nc(-c2ccc3ccccc3n2)n1-c1cc(Cl)cc(Cl)c1	13.7 µM	> 25
CCN=c1scc(-c2ccco2)n1/N=C/c1ccc(OC)c(O)c1	> 25 µM (inactive)	> 25
CC(C)CCNC(=O)CN(CC1CCCO1)C(=O)CCC(=O)Nc1ccccn1 (centres undefined)	> 25 µM (inactive)	> 25
Cc1ccc(NC(=O)C2SC(=Nc3ccccc3)C(C(=O)Nc3ccc(Cl)cc3)=C2N)cc1 (centres undefined)	> 25 µM (inactive)	> 25
CCOC(=O)c1c(NC(=O)CN2CCN(C(=O)c3ccco3)CC2)sc2c1CCCC2	23.2 µM	> 25
CCCCSc1nnc(CNC(=O)C23CC4CC(CC(C4)C2)C3)n1Cc1ccccc1	> 25 µM (inactive)	> 25
c1ccc(Cn2c(SCc3cn4cccnc4n3)nnc2-c2ccco2)cc1	> 25 µM (inactive)	> 25
CCc1ccc(-c2nn(-c3ccccc3)cc2CSC(=N)N)cc1	> 25 µM (inactive)	> 25
COCCn1c(SCc2cc(C(C)=O)ccc2OC)nc2cc(Cl)ccc2c1=O	8.09 µM	> 25
CCOC(=O)/C(=C/c1ccc(N2CCC(c3ccccc3)=N2)cc1)C(C)=O	> 25 µM (inactive)	> 25
COc1ccc(-n2cc(-c3ccccc3)c3c(N4CC(C)OC(C)C4)ncnc32)cc1 (centres undefined)	21.5 µM	> 25
COc1ccc(N/C(N)=N/c2nc(CSc3ccc(C)cc3)cc(=O)[nH]2)cc1	> 25 µM (inactive)	> 25
c1csc(C(c2nnnn2C2CCCCC2)N2CCCC3(CCCCC3)C2)c1 (centres undefined)	4.15 µM	> 25
C=CCC(C(=O)OC)(C(=O)OC)c1ccc([N+](=O)[O-])cn1	> 25 µM (inactive)	> 25
Cc1ccc(S(=O)(=O)Nc2ccc(N=Nc3ccc(O)cc3)cc2)cc1	17 µM	> 25
Cc1nc2cc(C(=O)OCC(=O)NC34CC5CC(CC(C5)C3)C4)ccc2n1-c1ccccc1	21.9 µM	> 25
